Reference: patent US6818215B2, “Antibodies to senescent cell-derived inhibiters of DNA synthesis” (priority 1991, dated 2004)

How the values were obtained:
HepG2 cells [1] = experiment: Phase contrast microscopy, cell size; assay type: cell-based, Human; settings: 9NC-treated cells
Excerpt: After 3 to […] of treatment the morphology of the cells remained stable with very little change during the three to four week culture period. Overall, cells appeared to be healthy and metabolically active, and resembled the morphology of primary human hepatocytes grown on plastic surfaces. Virtually no cell proliferation was observed following removal of 9NC and the cells maintained a differentiated phenotype without growth.

[2] = system: SDI-1 mRNA in HepG2 cells; experiment: Northern blot of SDI-1 mRNA (SDI-1/GAPDH) in 9NC-treated cells; assay type: cell-based, Human
Experimental: Therefore, initial studies to evaluate the levels of SDI-1 were performed with low doses of 9NC. Total RNA was isolated from HepG2 cells treated with 5 nM and 20 nM 9NC for 72 h and the levels of SDI-1 mRNAs expression in cells were examined by Northern blot hybridization analysis. […] The relative amount of SDI-1 mRNA in each sample was calculated as the ratio of SDI-1/GAPDH.
Caffeine abolishes G2 cell cycle checkpoint induced by DNA-damaging agents (Traganos, F. et al., Canc. Res. 53:4613-4618 (1993); Lau, C. C. et al., Proc. Natl. Acad. Sci. (U.S.A.) 79:2942-2946 (1982)). To assess the specificity of SDI-1 induction by 9NC, the levels of SDI-1 expressions were evaluated via Northern blot analysis after simultaneous addition of caffeine (1 mM) and 9NC. […] To establish the kinetics of 9NC-induced upregulation of SDI-1 gene, the cells cultured for 24 h in control medium were treated with 20 nM of 9NC for 0.5 h, 1.5 h, 3 h, 6 h, 12 h, and 24 h respectively.

HepG2 cells [3] = experiment: Cell Proliferation Kit-XTT, metabolic activity; assay type: cell-based, Human; settings: 20 nM; 72 h
Experimental: The effect of 9NC (5 to 80 nM) on cell proliferation and DNA synthesis was evaluated by the Cell Proliferation Kit-XTT (Boehringer Mannheim Corp., IN), a non-radioactive, calorimetric ELISA assay which reflects mitochondrial dehydrogenase activity. The assay is based on the cleavage of the yellow tetrazolium salt XTT to form an orange formazan dye by dehydrogenase activity in active mitochondria. This conversion occurs only in living cells and correlates with their overall metabolic activity.
(§1) Human hepatoblastoma cells, HepG2 cells were obtained from the American Type Culture Collection and maintained in RPMI-1640 medium (GIBCO, Grand Island, N.Y.) supplemented with 10% fetal bovine serum (GIBCO), 100 units/ml of penicillin, […] of streptomycin, […] of amphotericin (Sigma Chemical Co.), and 4 mM L-glutamine (GIBCO). The cell cultures were incubated at 37° C. in a humidified CO2 (5%) atmosphere. The cell number in untreated and 9NC-treated cultures was determined with the aid of cell counter (Coulter Electric, Inc., Hialeah, Fla.) and cell viability was monitored by trypan blue dye exclusion.
9NC was semisynthesized from CPT and purified as described by Wani, M. C. et al. (J. Med. Chem. 29:2358-2363 (1986)). A fine suspension of 9NC (10 μM) was prepared in polyethylene glycol (PEG 400; Aldrich, Milwaukee, Wis.), divided into small aliquots and stored at −80° C. until used. […]

HepG2 cells [4] = experiment: BrdU incorporation ELISA, DNA synthesis; assay type: cell-based, Human; settings: 20 nM; 72 h
Experimental: as §1
DNA synthesis was measured by 5-bromo-2′-deoxy-uridine (BrdU) incorporation into cellular DNA following 24 h and 72 h. treatment with 9NC using the Cell Proliferation Assay Kit-BrdU/ELISA (Boehringer Mannheim Corp.). Inhibition of DNA synthesis correlated with the length of 9NC treatment and the concentration of 9NC in the cell culture.

HepG2 cells [5] = experiment: Cell number by cell counter; assay type: cell-based, Human; settings: 20 nM; 72 h
Experimental: as §1
This inhibitory effect was not associated with cell death as assessed by trypan blue dye exclusion.

SDI-1 mRNA = experiment: Northern analysis of SDI-1 RNA after DNA damaging / growth arrest agents; settings: bleomycin 75 μg/ml 4 hr; etoposide 400 μM 8 hr; H2O2 400 μM 1 hr; MMS 100 μg 4 hr; Mitomycin C 5 μg/ml 30 hr; CdCl2 250 μM 1 hr; hydroxyurea 2 mM 24 hr; prostaglandin A2 10 μg/ml 24 hr
Experimental: (§2) To evaluate the effect of DNA damaging agents on SDI mRNA production, normal human neonatal foreskin fibroblast cells (strain HCA2); an immortalized cell line (TE85, obtainable from the American Type Culture Collection, Rockville, Md., US), and the above-described MDAH 041 cell lines were employed. All cells were cultured in Eagle's minimal essential medium with Earl's salts plus 10% fetal bovine serum (Gibco BRL, Gaithersburg, Md., US) in 5% CO2 at 37° C., or in Hanks salts plus 10% fetal bovine serum at 37° C. HCA2 cells achieve approximately 80 population doublings before becoming senescent. The cells were used at population doubling 27 or less.
(§3) For UV irradiation, cells were cultured in 150 cm^2 tissue culture dishes. Immediately prior to treatment the medium was removed and the dishes, without lids, were placed in a Stratagene (La Jolla, Calif., US) StratalinkerUV cross-linking device and irradiated with a dose of 30 J/m^2. Fresh serum-supplemented medium was then added and the cells were incubated at 37° C., 5% CO2. γ-irradiation was performed on cells in complete cell culture medium in 25 cm^2 tissue culture flasks, using a fixed ^137Cs source. The dose rate was 4.21 Gy/min. Exposure was to 4 Gy.
(§4) Tritiated thymidine was added 16 hours following each such treatment and the cells were incubated for 8 hours, fixed and processed for autoradiography; as described above. RNA was harvested 4 or 24 hours post treatment using RNAzol B (Cinna/Biotecx, Houston, Tex.) according to the manufacturer's protocol. 10-20 μg of RNA was separated on a 1.2% agarose gel with 20% formaldehyde, transferred to a Gene screen plus (EN, Boston, Mass.) membrane, probed, and quantitated. Fold induction was determined by comparing treated samples with untreated controls. Controls were mock treated cells put through the same washing, media change, transportation, and inadvertent temperature fluctuation as those receiving treatment. Controls for agents dissolved in ethanol or dimethyl sulfoxide were exposed to the same concentration of the solvent alone. SDI-1 RNA values were normalized to GAPBH levels.

[6] = system: normal human neonatal foreskin fibroblast cells (strain HCA2); experiment: Growth arrest by tritiated thymidine incorporation after DNA damaging / growth arrest agents; assay type: cell-based; settings: doses as in Table 10; tritiated thymidine added 16 hours after treatment for 8 hours
Experimental: as §2, §3, §4

SDI-1 message in TE85 = experiment: SDI-1 message level after agents in cells lacking functional p53; assay type: cell-based, human; settings: TE85 (mutant p53); agents of Table 10
Experimental: as §2, §4
(§5) This gene also requires functional p53 for induction by γ-irradiation but not by most other agents (Zhan, Q. et al., Molec. Cell. Biol. 13:4242-4250 (1993)). GADD45 is a member of a family of genes that were identified based upon their induction by both growth arrest and DNA damage (Fornace, A. J. et al., Molec. Cell. Biol. 9:4196-4203 (1989)). […] The above methods can be used to identifiy such additional regulators.

[7] = system: SDI-1 message in MDAH 041; experiment: as above; assay type: cell-based, human; settings: MDAH 041 (no p53); agents of Table 10
Experimental: as §2, §4, §5

[8] = system: cells in medium containing 0.5% FBS; experiment: SDI-1 antisense oligonucleotide, tritiated thymidine incorporation in low serum; assay type: cell-based; settings: 1, 2 or 5 μM on Days 1, 3, 5; harvested day 7
Experimental: Cells were cultured in medium containing 10% fetal bovine serum (FBS) for approximately one week, at which time the medium was replaced with medium containing 0.5% FBS. The cells were divided into control cells and experimental cells. On Day 1, experimental cells were provided with either 1, 2 or 5 μM of the above-described oligonucleotide; Control cells received no oligonucleotide. On Day 3, and again on Day 5, all cells received fresh medium containing 0.5% FBS; experimental cells received additional oligonucleotides (1, 2 or 5 μM). On Day 6, tritiated thymidine was added to the culture media and the cells were harvested on day 7.

cyclin/cdk2 complexes = molecular target: T1, cyclin/cdk2 complexes (Homo sapiens, UniProt P24941); experiment: Histone H1 kinase activity of cyclin/cdk2 complexes immunoprecipitated from HeLa cell extracts; assay type: biochemical; settings: complexes immunoprecipitated by cdk2 antisera
T1 construct: immunoprecipitated from HeLa cell extracts by cdk2 antisera; endogenous in cells; host or cells: HeLa cell extracts, immunoprecipitated with cdk2 antisera
Excerpt: The physiological significance of inhibition of cell proliferation by overexpression of SDI-1 is strengthened by the finding that SDI-1 can inhibit the kinase activity of cyclin/cdk2 complexes.
[…]

young cells = experiment: Cellular uptake of GST-SDI-1 fusions and quiescence; assay type: cell-based
cdk2 protein = molecular target: T2, cdk2 protein (Homo sapiens, UniProt P24941); experiment: Binding of in vitro translated SDI-1 deletion mutants to purified cdk2, anti-cdk2 immunoprecipitation; settings: 45 μl translation product, 1 ug cdk2, 4° C.
T2 construct: host or cells: baculovirus expression system
Experimental: To determine whether the DNA synthesis inhibition caused by these mutants was occurring through inhibition of cdk kinases, the binding of in vitro translated deletion mutant proteins products with purified cdk2protein was examined. Thus, the various deletion mutants of SDI-1 were translated in reticulocyte lysates (Promega) using pBluescript based plasmids as transcription templates for the T7 RNA polymerase. For in vitro binding, 45 μl of the translation product was added to 500 μl binding buffer (50 mM Tris/HCl, pH 7.5, 120 mM NaCl, 2 mM EDTA, 0.1% NP-40, 1 mM NaF, 0.1 m.M sodium vanidate, 5 μg/ml leupeptin, 5 μg/ml soybean trypsin inhibitor, 5 μg/ml aprotinin) containing 1 ug cdk2 protein purified from a bacculovirus expression system. The mixture was gently rocked for 1 hour at 4° C. and then 7.5 μg anti-cdk2 rabbit polyclonal antibody was added. Mixing was continued for 1 hour at 4° C. The immunocomplex was absorbed by incubation with 40 μl protein G plus A beads for 2 hr. The matrices were then washed three times with 0.5 ml of binding buffer prior to electrophoresis and autoradiography.

In the case of `CC[C@@]1(O)C(=O)OCc2c1cc1n(c2=O)Cc2cc3c([N+](=O)[O-])cccc3nc2-1` [9NC], the increased cell size (HepG2 cells [1]) is reported as 2 to 5 fold, the “time at which SDI-1 gene expression reached maximum” value ([2]; 20 nM, 0.5-24 h) is reported as 24 h and the “increase in SDI-1 expression (SDI-1/GAPDH)” value ([2]; 20 nM, 72 h) is reported as “At least 3 fold”. The “suppression of metabolic activity” value (HepG2 cells [3]) was “approximately 20%”, the “decrease in DNA synthesis” value (HepG2 cells [4]) was “at least 4 fold” and the “decrease in cell numbers” value (HepG2 cells [5]) was “at least 2 fold”.

`[Cl][Cd][Cl]` [CdCl2, cadmium chloride] was tested, and the “SDI-1 Level (Fold induction of SDI-1 at 24 hour level)” value (SDI-1 mRNA) was 1.3 Fold induction and the “% Growth Arrest” value [6] was 0%.

`OO` [H2O2, hydrogen peroxide] was tested, and the “SDI-1 message level (Control = 1)” value (SDI-1 message in TE85) was 4.0, the “SDI-1 message level (Control = 1)” value [7] was 3.3 and the “% Growth Arrest” value [6] was 95%.

`COS(C)(=O)=O` [MMS, methyl methane sulfonate] was tested, and the “% Growth Arrest” value [6] was 53%.

For `CO[C@@]12[C@H](COC(N)=O)C3=C(C(=O)C(C)=C(N)C3=O)N1C[C@@H]1N[C@@H]12` [Mitomycin C, mitomycin C], the “SDI-1 Level (Fold induction of SDI-1 at 24 hour level)” value (SDI-1 mRNA) was 2.8 Fold induction, the “SDI-1 message level (Control = 1)” value (SDI-1 message in TE85) was 2.5 and the “% Growth Arrest” value [6] was 100%.

For `Cn1c(=O)c2c(ncn2C)n(C)c1=O` [caffeine], the “effect on SDI-1 expression” value ([2]; caffeine (1 mM) alone) was “no appreciable effect” and the “effect on 9NC-dependent induction of SDI-1 expression” value ([2]; simultaneous addition of caffeine (1 mM) and 9NC) was “abrogated”.

In the case of `COc1cc([C@@H]2c3cc4c(cc3[C@@H](O[C@@H]3O[C@@H]5CO[C@@H](C)O[C@H]5[C@H](O)[C@H]3O)[C@H]3COC(=O)[C@H]23)OCO4)cc(OC)c1O` [etoposide], the “% Growth Arrest” value [6] is reported as 100%.

`NC(=O)NO` [hydroxyurea] was tested, and the “SDI-1 message level (Control = 1)” value (SDI-1 message in TE85) was 7.5, the “SDI-1 message level (Control = 1)” value [7] was 2.5 and the “% Growth Arrest” value [6] was 100%.

With `CCCCC[C@H](O)/C=C/[C@H]1C=CC(=O)[C@@H]1C/C=C\CCCC(=O)O` [prostaglandin A2] the “SDI-1 Level (Fold induction of SDI-1 at 24 hour level)” value (SDI-1 mRNA) was 6.1 Fold induction and the “% Growth Arrest” value [6] was 100%.

With “AGCCGGTTCTGACATGGCG (chemistry not given here) [antisense oligonucleotide]” the “tritiated thymidine incorporated into DNA relative to control cells” value [8] was “increase”.

With “GST-SDI-1 fusion protein: Schistosoma japonicum GST 1-226, hinge Pro-Arg-Gly-Asp-Pro-Pro-Ala, SDI-1; SEQ ID NO:11; printed as SDI-1 in Table 8” the “amount giving half maximal inhibition of histone H1 kinase activity” value (cyclin/cdk2 complexes) was 250 ng, the “quiescence of exposed young cells” value (young cells) was “exhibited quiescence” and the “detection of fusion protein within the cells” value (young cells; provided to young cells) was “detectable within the cells”.

bleomycin was tested, and the “SDI-1 Level (Fold induction of SDI-1 at 24 hour level)” value (SDI-1 mRNA) was 11.8 Fold induction and the “% Growth Arrest” value [6] was 100%.

B1: 72-77: SDI-1 mutant with amino acids 72-77 deleted, HA tagged (protein)
chain: MSEPAGDVRQNPCGSKACRRLFGPVDSEQLSRDCDALMAGCIQEARERWNFDFVTETPLEGDFAWERVRGLPRGLPTGPRRGRDELGGGRRPGTSPALLQGTAEEDHVDLSLSCTLVPRSGEQAEGSPGGPGDSQGRKRRQTSMTDFYHSKRRLIFSKRKP
modifications: left off: small tags and cut ends
notes: SDI-1 mutant with amino acids 72-77 deleted, HA tagged
B1 was tested, and the “binding to purified cdk2 protein” value (cdk2 protein) was “bound cdk2 protein efficiently”.
